In US20220041647A1, “ESTRA-1,3,5(10)-TRIENE COMPOUNDS CONDENSED IN POSITION 16(17) WITH A PYRAZOLE RING AS INHIBITORS OF 17-HSD1” (FORENDO PHARMA LTD, priority 2018, published 2022):

Key:
[1] = Metabolic stability assay, human hepatocyte incubations; assay type: in vitro ADME; conditions: compound 1 μM, human hepatocytes, 0-60 min at 37° C.; read-out: Human hepatocytes MetStab T½ min
Method in brief: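 Compounds at 1 μM (1% DMSO final) incubated with human hepatocytes at 37 °C for 0, 10, 20, 40 and 60 min. Parent measured by LC-MS/MS as % remaining versus time zero; T1/2 obtained by regression of the disappearance curve.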

[2] = target: T1, recombinant human 17β-HSD2 (Homo sapiens, UniProt P37059); test: Inhibition of recombinant human 17β-HSD2 (estradiol to estrone conversion, HPLC/radioactivity); assay type: biochemical; conditions: compound 1 μM; 50 nM estradiol, 1 mM NADH, 30 min RT
T1 construct: made in house; host or cells: Sd9 (Sf9) insect cells, baculovirus (Bac to Bac Expression System)
T1 sequence (P37059 1-387): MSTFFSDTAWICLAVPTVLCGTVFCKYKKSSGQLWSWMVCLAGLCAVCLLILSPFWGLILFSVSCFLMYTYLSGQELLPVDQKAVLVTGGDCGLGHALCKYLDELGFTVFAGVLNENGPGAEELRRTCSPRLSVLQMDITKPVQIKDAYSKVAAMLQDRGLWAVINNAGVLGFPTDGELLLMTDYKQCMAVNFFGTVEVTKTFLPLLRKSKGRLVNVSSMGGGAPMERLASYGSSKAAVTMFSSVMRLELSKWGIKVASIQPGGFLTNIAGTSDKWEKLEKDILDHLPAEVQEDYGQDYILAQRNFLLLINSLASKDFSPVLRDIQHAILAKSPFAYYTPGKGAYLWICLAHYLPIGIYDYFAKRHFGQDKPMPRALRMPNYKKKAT
Method in brief: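 Membrane extract of Sf9 cells expressing recombinant human 17β-HSD2 (4 μg/ml), in 20 mM KH2PO4 pH 8.5 with 50 nM ^3H-spiked estradiol and 1 mM NADH, 30 min at RT, 1% DMSO. Compound at 1 μM or 0.1 μM; estrone formation by HPLC radioactivity, % inhibition relative to uninhibited conversion.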

SMILES | half-life at 1 μM [1] [h] | inhibition at 1 µM [2] [%]
C[C@]12CCC3c4cccc(F)c4CCC3C1[C@H](CCC(=O)Nc1cc(F)ccn1)c1c[nH]nc12 (stereo partly drawn) [Compound 15, 3-((8aS,12S)-3-fluoro-8a-methyl-1,2,6b,7,8,8a,10,12,12a,12b-decahydronaphtho[2′,1′:4,5]indeno[1,2-c]pyrazol-12-yl)-N-(4-fluoropyridin-2-yl)propanamide] | 0.717 | 6
C[C@]12CCC3c4ccc(Cl)cc4CCC3C1[C@H](CCC(=O)Nc1cc3c([nH]c1=O)CCCC3)c1c[nH]nc12 (stereo partly drawn) [Compound 123, 3-((8aS,12S)-4-chloro-8a-methyl-1,2,6b,7,8,8a,10,12,12a,12b-decahydronaphtho[2′,1′:4,5]indeno[1,2-c]pyrazol-12-yl)-N-(2-oxo-1,2,5,6,7,8-hexahydroquinolin-3-yl) propanamide] | 2.58 | 8
C[C@]12CCC3c4cccc(F)c4CCC3C1[C@H](CCC(=O)Nc1cc3c([nH]c1=O)CCCC3)c1c[nH]nc12 (stereo partly drawn) [Compound 30, 3-((8aS,12S)-3-fluoro-8a-methyl-1,2,6b,7,8,8a,10,12,12a,12b-decahydronaphtho[2′,1′:4,5]indeno[1,2-c]pyrazol-12-yl)-N-(2-oxo-1,2,5,6,7,8-hexahydroquinolin-3-yl)propanamide] | 1.95 | 3
COc1ccc(NC(=O)CC[C@@H]2c3c[nH]nc3[C@@]3(C)CCC4c5ccccc5CCC4C23)nn1 (stereo partly drawn) [Compound 156, N-(6-methoxypyridazin-3-yl)-3-((8aS,12S)-8a-methyl-1,2,6b,7,8,8a,10,12,12a,12b-decahydronaphtho[2′,1′:4,5]indeno[1,2-c]pyrazol-12-yl)propanamide] | 1.55 | -3
COc1ccc(NC(=O)CC[C@@H]2c3c[nH]nc3[C@@]3(C)CCC4c5ccccc5CCC4C23)nc1 (stereo partly drawn) [Compound 141, N-(5-methoxypyridin-2-yl)-3-((8aS,12S)-8a-methyl-1,2,6b,7,8,8a,10,12,12a,12b-decahydronaphtho[2′,1′:4,5]indeno[1,2-c]pyrazol-12-yl)propanamide] | 0.75 | -1
COc1ccnc(NC(=O)CC[C@@H]2c3c[nH]nc3[C@@]3(C)CCC4c5ccc(F)cc5CCC4C23)c1 (stereo partly drawn) [Compound 90, 3-((8aS,12S)-4-fluoro-8a-methyl-1,2,6b,7,8,8a,10,12,12a,12b-decahydronaphtho[2′,1′:4,5]indeno[1,2-c]pyrazol-12-yl)-N-(4-methoxypyridin-2-yl)propanamide] | 1.28 | 3
Cc1ccnc(NC(=O)CC[C@@H]2c3c[nH]nc3[C@@]3(C)CCC4c5ccccc5CCC4C23)c1 (stereo partly drawn) [Compound 168, 3-((8aS,12S)-8a-methyl-1,2,6b,7,8,8a,10,12,12a,12b-decahydronaphtho[2′,1′:4,5]indeno[1,2-c]pyrazol-12-yl)-N-(4-methylpyridin-2-yl)propanamide] | 1.13 | 5
C[C@]12CCC3c4ccccc4CCC3C1[C@H](CCC(=O)Nc1cnccn1)c1c[nH]nc12 (stereo partly drawn) [Compound 189, 3-((8aS,12S)-8a-methyl-1,2,6b,7,8,8a,10,12,12a,12b-decahydronaphtho[2′,1′:4,5]indeno[1,2-c]pyrazol-12-yl)-N-(pyrazin-2-yl)propanamide] | 0.5 | 9
C[C@]12CCC3c4ccccc4CCC3C1[C@H](CCC(=O)Nc1cc(F)ccn1)c1c[nH]nc12 (stereo partly drawn) [Compound 162, N-(4-fluoropyridin-2-yl)-3-((8aS,12S)-8a-methyl-1,2,6b,7,8,8a,10,12,12a,12b-decahydronaphtho[2′,1′:4,5]indeno[1,2-c]pyrazol-12-yl)propanamide] | 1.38 | 9
COc1ccnc(NC(=O)CC[C@@H]2c3c[nH]nc3[C@@]3(C)CCC4c5cccc(F)c5CCC4C23)c1 (stereo partly drawn) [Compound 48, 3-((8aS,12S)-3-fluoro-8a-methyl-1,2,6b,7,8,8a,10,12,12a,12b-decahydronaphtho[2′,1′:4,5]indeno[1,2-c]pyrazol-12-yl)-N-(4-methoxypyridin-2-yl)propanamide] | 0.567 | 5
CN(C)C(=O)CC[C@@H]1c2c[nH]nc2[C@@]2(C)CCC3c4cccc(F)c4CCC3C12 (stereo partly drawn) [Compound 222, 3-((8aS,12S)-3-fluoro-8a-methyl-1,2,6b,7,8,8a,10,12,12a,12b-decahydronaphtho[2′,1′:4,5]indeno[1,2-c]pyrazol-12-yl)-N,N-dimethylpropanamide] | 0.2 | 0
C[C@]12CCC3c4cccc(F)c4CCC3C1[C@H](CCC(=O)Nc1ccc(N3CCOCC3)cn1)c1c[nH]nc12 (stereo partly drawn) [Compound 39, 3-((8aS,12S)-3-fluoro-8a-methyl-1,2,6b,7,8,8a,10,12,12a,12b-decahydronaphtho[2′,1′:4,5]indeno[1,2-c]pyrazol-12-yl)-N-(5-morpholinopyridin-2-yl)propanamide] | 1.12 | 9
C[C@]12CCC3c4ccc(F)cc4CCC3C1[C@H](CCC(=O)Nc1ccc(F)cn1)c1c[nH]nc12 (stereo partly drawn) [Compound 99, 3-((8aS,12S)-4-fluoro-8a-methyl-1,2,6b,7,8,8a,10,12,12a,12b-decahydronaphtho[2′,1′:4,5]indeno[1,2-c]pyrazol-12-yl)-N-(5-fluoropyridin-2-yl)propanamide] | 1.62 | 4
CN(C)C(=O)c1ccc(NC(=O)CC[C@@H]2c3c[nH]nc3[C@@]3(C)CCC4c5cccc(F)c5CCC4C23)nc1 (stereo partly drawn) [Compound 33, 6-(3-((8aS,12S)-3-fluoro-8a-methyl-1,2,6b,7,8,8a,10,12,12a,12b-decahydronaphtho[2′,1′:4,5]indeno[1,2-c]pyrazol-12-yl)propanamido)-N,N-dimethylnicotinamide] | 1.78 | 8
COc1ccc(NC(=O)CC[C@@H]2c3c[nH]nc3[C@@]3(C)CCC4c5ccc(F)cc5CCC4C23)nc1 (stereo partly drawn) [Compound 84, 3-((8aS,12S)-4-fluoro-8a-methyl-1,2,6b,7,8,8a,10,12,12a,12b-decahydronaphtho[2′,1′:4,5]indeno[1,2-c]pyrazol-12-yl)-N-(5-methoxypyridin-2-yl)propanamide] | 2.47 | 2
Cc1ccnc(NC(=O)CC[C@@H]2c3c[nH]nc3[C@@]3(C)CCC4c5ccc(F)cc5CCC4C23)c1 (stereo partly drawn) [Compound 93, 3-((8aS,12S)-4-fluoro-8a-methyl-1,2,6b,7,8,8a,10,12,12a,12b-decahydronaphtho[2′,1′:4,5]indeno[1,2-c]pyrazol-12-yl)-N-(4-methylpyridin-2-yl)-propanamide] | 1.1 | 4
